Data published in DBAASP.
Converted amounts (≈) assume the structure as drawn.

How the values were obtained:
Assay in all cases: ≥ marks a high value that may be exact or a test limit, other limits are often not marked, values filed in µg/mL are converted to µM
[1] = test system: Staphylococcus aureus
[2] = test system: Pseudomonas aeruginosa
[3] = test system: Shigella dysenteriae
[4] = test system: Bacillus subtilis
[5] = test system: Micrococcus luteus
[6] = test system: Salmonella typhimurium
[7] = test system: Proteus mirabilis
[8] = test system: Escherichia coli
[9] = test system: Klebsiella pneumoniae
[10] = test system: Staphylococcus epidermidis
[11] = test system: Staphylococcus aureus ATCC 2592
[12] = test system: Escherichia coli ATCC 25922
[13] = test system: Serratia marcescens
[14] = test system: Bacillus subtilis 168
[15] = test system: Escherichia coli B
[16] = test system: Candida albicans F7-39/IDE99
[17] = test system: Leuconostoc lactis
[18] = test system: Bacillus cereus
[19] = test system: Enterococcus faecalis
[20] = test system: Streptococcus uberis
[21] = test system: Pasteurella multocida
[22] = test system: Listeria innocua
[23] = test system: Acinetobacter baumannii
[24] = test system: Bacillus subtilis ATCC 6633
[25] = test system: Staphylococcus aureus ATCC 6538P
[26] = test system: Pseudomonas aeruginosa ATCC 27853
[27] = test system: Shigella dysenteriae ATCC 9752
[28] = test system: Staphylococcus aureus TK784
[29] = test system: Micrococcus luteus ATCC 10240
[30] = test system: Salmonella enterica subsp. enterica serovar Typhimurium ATCC 14028
[31] = test system: Staphylococcus epidermidis ATCC 12228
[32] = test system: Klebsiella pneumoniae ATCC 10031

| Compound | MIC [1] | MIC [2] | MIC [3] | MIC [4] | MIC [5] | MIC [6] | MIC [7] | MIC [8] | MIC [9] | MIC [10] | MIC [12] | MIC [24] | MIC [25] | MIC [26] | MIC [27] | MIC [28] | MIC [29] | MIC [30] | MIC [31] | MIC [32] | also measured |
| --- | --- | --- | --- | --- | --- | --- | --- | --- | --- | --- | --- | --- | --- | --- | --- | --- | --- | --- | --- | --- | --- |
| CC(C)C[C@H](NC(=O)[C@H](C)NC(=O)CNC(=O)[C@H](CC(C)C)NC(=O)[C@@H](N)Cc1ccccc1)C(=O)N[C@@H](Cc1ccccc1)C(=O)N[C@@H](CCCCN)C(=O)N[C@H](C(=O)N[C@@H](C)C(=O)N[C@@H](CO)C(=O)N[C@@H](CCCCN)C(=O)N[C@H](C(=O)O)C(C)C)C(C)C [FLGALFKVASKV] | > 156 µM | > 156 µM | ≥ 156 µM | ≥ 156 µM | ≥ 156 µM | ≥ 156 µM | ≥ 156 µM | > 156 µM | > 156 µM | ≥ 156 µM |  |  |  |  |  |  |  |  |  |  |  |
| CC(C)C[C@H](NC(=O)[C@H](C)NC(=O)CNC(=O)[C@H](CC(C)C)NC(=O)[C@@H](N)Cc1ccccc1)C(=O)N[C@@H](Cc1ccccc1)C(=O)N[C@@H](CCCCN)C(=O)N[C@H](C(=O)N[C@@H](C)C(=O)N[C@@H](Cc1c[nH]c2ccccc12)C(=O)N[C@@H](CCCCN)C(=O)O)C(C)C [FLGALFKVAWK] | 9.77 µM (≈ 12.5 µg/mL) | > 156 µM | ≥ 78.2 µM | 19.5 µM (≈ 25 µg/mL) | 19.5 µM (≈ 25 µg/mL) | ≥ 156 µM | ≥ 156 µM | 78.2 µM (≈ 100 µg/mL) | 39.1 µM (≈ 50 µg/mL) | ≥ 39.1 µM |  |  |  |  |  |  |  |  |  |  |  |
| CC(C)C[C@H](NC(=O)[C@H](C)NC(=O)CNC(=O)[C@H](CC(C)C)NC(=O)[C@@H](N)Cc1ccccc1)C(=O)N[C@@H](Cc1ccccc1)C(=O)N[C@@H](CCCCN)C(=O)N[C@H](C(=O)N[C@@H](Cc1c[nH]c2ccccc12)C(=O)N[C@@H](CO)C(=O)N[C@@H](CCCCN)C(=O)O)C(C)C [FLGALFKVWSK] | > 154 µM | > 154 µM | ≥ 154 µM | ≥ 154 µM | ≥ 154 µM | ≥ 154 µM | ≥ 154 µM | > 154 µM | > 154 µM | ≥ 154 µM |  |  |  |  |  |  |  |  |  |  |  |
| CC[C@H](C)[C@@H]1NC(=O)[C@H](CCCCN)NC(=O)[C@@H](NC(=O)[C@H](CCSC)NC(=O)[C@H](CC(C)C)NC(=O)[C@@H]2CCCN2C(=O)[C@H](Cc2ccccc2)NC(=O)[C@H](CC(C)C)NC(=O)[C@H](CC(C)C)NC(=O)[C@@H](N)Cc2ccccc2)CSSC[C@@H](C(=O)O)NC(=O)[C@H](CCCCN)NC(=O)CNC(=O)[C@H](CCC(N)=O)NC1=O [FLLFPLMCKIQGKC] |  |  |  |  |  |  |  |  | > 60.9 µM |  | > 60.9 µM |  |  |  |  |  |  |  |  |  | MIC [11]: 22.9 µM (≈ 37.5 µg/mL); MIC [13]: ≥ 60.9 µM |
| CC(C)C[C@H](NC(=O)[C@H](C)NC(=O)CN)C(=O)N[C@@H](Cc1ccccc1)C(=O)N[C@@H](CCCCN)C(=O)N[C@H](C(=O)N[C@@H](C)C(=O)N[C@@H](CO)C(=O)N[C@@H](CCCCN)C(=O)N[C@H](C(=O)N[C@@H](CC(C)C)C(=O)N1CCC[C@H]1C(=O)N[C@@H](CO)C(=O)O)C(C)C)C(C)C [GALFKVASKVLPS] | > 152 µM | > 152 µM | ≥ 152 µM | ≥ 152 µM | ≥ 152 µM | ≥ 152 µM | ≥ 152 µM | > 152 µM | > 152 µM | ≥ 152 µM |  |  |  |  |  |  |  |  |  |  |  |
| CC(C)C[C@H](NC(=O)[C@@H](NC(=O)[C@H](CCCCN)NC(=O)[C@H](CCCCN)NC(=O)[C@H](CC(C)C)NC(=O)[C@H](CC(C)C)NC(=O)[C@H](CCCCN)NC(=O)[C@H](CC(C)C)NC(=O)[C@H](C)NC(=O)[C@H](CCCCN)NC(=O)CNC(=O)[C@H](Cc1ccccc1)NC(=O)CN)C(C)C)C(N)=O [GFGKALKLLKKVL] | 10 µM (≈ 14.1 µg/mL) | 10 µM (≈ 14.1 µg/mL) |  |  |  |  |  |  |  |  |  |  |  |  |  |  |  |  |  |  | MIC [14]: 1.8 µM (≈ 2.54 µg/mL); MIC [15]: 2.5 µM (≈ 3.53 µg/mL); MIC [16]: 5 µM (≈ 7.07 µg/mL) |
| CC[C@H](C)[C@H](NC(=O)[C@H](C)NC(=O)[C@@H]1CCCN1C(=O)[C@@H](NC(=O)[C@@H](NC(=O)[C@H](Cc1cnc[nH]1)NC(=O)[C@H](C)NC(=O)[C@H](C)NC(=O)[C@@H](NC(=O)[C@H](CCCCN)NC(=O)[C@H](C)NC(=O)[C@H](CC(C)C)NC(=O)[C@@H](NC(=O)CNC(=O)[C@H](Cc1ccccc1)NC(=O)[C@H](CC(C)C)NC(=O)CN)C(C)C)C(C)C)C(C)C)C(C)C)C(=O)N[C@@H](C)C(=O)N[C@@H](CCC(=O)O)C(=O)N[C@@H](Cc1cnc[nH]1)C(=O)N[C@@H](Cc1ccccc1)C(=O)O [GLFGVLAKVAAHVVPAIAEHF] | > 46.6 µM |  |  |  | ≥ 46.6 µM |  |  | > 46.6 µM |  | ≥ 46.6 µM |  |  |  |  |  |  |  |  |  |  | MIC [17]: 23.3 µM (≈ 50 µg/mL); MIC [18]: ≥ 46.6 µM; MIC [19]: ≥ 46.6 µM; MIC [20]: ≥ 46.6 µM; MIC [21]: ≥ 46.6 µM; MIC [22]: ≥ 46.6 µM |

Second part, led by results:

| MIC [1] | MIC [2] | MIC [3] | MIC [4] | MIC [5] | MIC [6] | MIC [7] | MIC [8] | MIC [9] | MIC [10] | MIC [12] | MIC [24] | MIC [25] | MIC [26] | MIC [27] | MIC [28] | MIC [29] | MIC [30] | MIC [31] | MIC [32] | Compound | also measured |
| --- | --- | --- | --- | --- | --- | --- | --- | --- | --- | --- | --- | --- | --- | --- | --- | --- | --- | --- | --- | --- | --- |
| 2.49 µM (≈ 4.3 µg/mL) | 0.753 µM (≈ 1.3 µg/mL) |  |  |  |  |  |  |  |  |  |  |  |  |  |  |  |  |  |  | CC(C)C[C@H](NC(=O)[C@H](Cc1c[nH]c2ccccc12)NC(=O)[C@H](CCCCN)NC(=O)[C@H](CC(C)C)NC(=O)[C@H](CC(C)C)NC(=O)[C@H](CCCCN)NC(=O)[C@H](CCCN=C(N)N)NC(=O)[C@H](Cc1c[nH]c2ccccc12)NC(=O)[C@H](CCCCN)NC(=O)[C@@H](N)CCCCN)C(=O)N[C@@H](C)C(=O)N[C@@H](CCCCN)C(=O)N[C@@H](CCCCN)C(N)=O [KKWRKLLKWLAKK] | MIC [19]: 1.56 µM (≈ 2.7 µg/mL); MIC [23]: 1.33 µM (≈ 2.3 µg/mL) |
|  |  |  |  |  |  |  |  |  |  | 1.42 µM (≈ 2 µg/mL) | 1.42 µM (≈ 2 µg/mL) | 1.42 µM (≈ 2 µg/mL) | 5.67 µM (≈ 7.99 µg/mL) | 1.42 µM (≈ 2 µg/mL) | 5.67 µM (≈ 7.99 µg/mL) | 1.42 µM (≈ 2 µg/mL) | 1.42 µM (≈ 2 µg/mL) | 1.42 µM (≈ 2 µg/mL) | 1.42 µM (≈ 2 µg/mL) | CC(C)C[C@H](NC(=O)[C@H](CC(C)C)NC(=O)[C@H](CCCCN)NC(=O)[C@H](CCCCN)NC(=O)[C@H](CC(C)C)NC(=O)[C@H](Cc1c[nH]c2ccccc12)NC(=O)[C@H](CCCCN)NC(=O)[C@H](CC(C)C)NC(=O)[C@H](CC(C)C)NC(=O)[C@@H](N)CCCCN)C(=O)N[C@@H](CCCCN)C(N)=O [KLLKWLKKLLK] |  |
|  |  |  |  |  |  |  |  |  |  | 40.6 µM (≈ 40 µg/mL) | 20.3 µM (≈ 20 µg/mL) | 20.3 µM (≈ 20 µg/mL) | 81.1 µM (≈ 79.9 µg/mL) | ≥ 81.1 µM | ≥ 81.1 µM | ≥ 81.1 µM | > 81.1 µM | 81.1 µM (≈ 79.9 µg/mL) | ≥ 81.1 µM | CC(C)C[C@H](NC(=O)[C@H](Cc1c[nH]c2ccccc12)NC(=O)[C@H](CCCCN)NC(=O)[C@H](CC(C)C)NC(=O)[C@H](CC(C)C)NC(=O)[C@H](Cc1c[nH]c2ccccc12)NC(=O)[C@@H](N)CCCCN)C(N)=O [KWLLKWL] |  |
|  |  |  |  |  |  |  |  |  |  | > 105 µM | ≥ 105 µM | ≥ 105 µM | > 105 µM | ≥ 105 µM | ≥ 105 µM | ≥ 105 µM | > 105 µM | > 105 µM | ≥ 105 µM | CC(C)C[C@H](NC(=O)[C@@H](N)Cc1c[nH]c2ccccc12)C(=O)N[C@@H](CCCCN)C(=O)N[C@@H](CCCCN)C(=O)N[C@@H](Cc1c[nH]c2ccccc12)C(N)=O [WLKKW] |  |
|  |  |  |  |  |  |  |  |  |  | > 107 µM | ≥ 107 µM | ≥ 107 µM | > 107 µM | ≥ 107 µM | ≥ 107 µM | ≥ 107 µM | > 107 µM | > 107 µM | ≥ 107 µM | CC(C)C[C@H](NC(=O)[C@H](CC(C)C)NC(=O)[C@@H](N)Cc1c[nH]c2ccccc12)C(=O)N[C@@H](CCCCN)C(=O)N[C@@H](Cc1c[nH]c2ccccc12)C(N)=O [WLLKW] |  |
